According to ChEMBL document CHEMBL1127850:

Experiments:
[1] = biological target: D(1A) dopamine receptor (Rattus norvegicus) (UniProt P18901); test: Tested for its affinity towards Dopamine receptor D1 in rat striatal membrane; format: cell membranes; conditions: Striatum
[2] = biological target: D(1A) dopamine receptor (Rattus norvegicus) (UniProt P18901)
Rattus norvegicus = species: Rattus norvegicus; test: Tested effective dose for maximal stimulation of adenylate cyclase in rat striatal membrane; format: functional; conditions: Striatum
[3] = biological target: D(2) dopamine receptor (Homo sapiens) (UniProt P14416)
D(2) dopamine receptor (Homo sapiens), sequence (P14416 whole entry): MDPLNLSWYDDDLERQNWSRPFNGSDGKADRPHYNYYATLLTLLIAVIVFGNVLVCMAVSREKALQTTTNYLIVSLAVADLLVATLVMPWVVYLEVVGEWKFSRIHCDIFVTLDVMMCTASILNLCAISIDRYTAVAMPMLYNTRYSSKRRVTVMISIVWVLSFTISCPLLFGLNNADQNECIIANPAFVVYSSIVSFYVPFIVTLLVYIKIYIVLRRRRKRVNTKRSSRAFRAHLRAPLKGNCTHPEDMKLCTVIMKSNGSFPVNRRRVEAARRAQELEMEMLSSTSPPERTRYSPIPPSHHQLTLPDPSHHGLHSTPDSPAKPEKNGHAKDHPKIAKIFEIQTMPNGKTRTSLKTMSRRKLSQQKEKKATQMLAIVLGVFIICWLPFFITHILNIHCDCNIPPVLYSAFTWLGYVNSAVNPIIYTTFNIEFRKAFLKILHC
Description: Tested for binding affinity towards D2 receptor labelled by [3H]- spiperone as radioligand

D(1A) dopamine receptor (Rattus norvegicus), sequence (P18901 whole entry): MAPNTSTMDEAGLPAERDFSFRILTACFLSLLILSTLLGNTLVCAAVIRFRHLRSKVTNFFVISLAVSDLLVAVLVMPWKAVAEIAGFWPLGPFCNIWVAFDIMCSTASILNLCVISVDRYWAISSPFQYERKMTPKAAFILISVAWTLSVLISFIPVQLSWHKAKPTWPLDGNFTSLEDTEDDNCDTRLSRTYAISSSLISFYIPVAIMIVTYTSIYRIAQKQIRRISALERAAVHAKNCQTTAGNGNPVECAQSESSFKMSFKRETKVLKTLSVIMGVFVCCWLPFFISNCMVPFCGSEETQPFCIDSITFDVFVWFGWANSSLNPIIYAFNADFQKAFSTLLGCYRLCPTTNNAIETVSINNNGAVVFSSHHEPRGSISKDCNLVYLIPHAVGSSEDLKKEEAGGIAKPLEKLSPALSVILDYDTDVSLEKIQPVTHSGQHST

| Compound | pD2 [1] | K0.5 [2] | Stimulation (Rattus norvegicus) | K0.5 [3] |
| --- | --- | --- | --- | --- |
| CN1Cc2ccccc2[C@@H]2c3cccc4[nH]cc(c34)C[C@H]21 | 6.1 | – | – | – |
| Oc1cc2c(cc1O)[C@H]1c3ccccc3CN[C@@H]1CC2 (racemic) | – | 11.6 nM | 95% | – |
| Oc1cc2c(cc1O)[C@H]1c3ccccc3CN[C@@H]1CC2 (stereo in doubt; (+)-2) | – | 5.6 nM | 105% | 87.7 nM |
| Oc1cc2c(cc1O)[C@H]1c3ccccc3CN[C@@H]1CC2 (stereo in doubt; (-)-2) | – | 149 nM | – | – |
